The source of these data is the supplement of paper PMC6965134.

This data set in a line: TIMS collisional cross section (CCS, N2) of the lipid ion; higher = larger ion cross section. The settings on record: ionization mode: negative, one isomer drawn. As for the experimental part: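 Lipid extracts of human plasma (NIST SRM 1950), mouse liver or HeLa cells were separated by nanoflow C18 LC (30 min gradient) and analysed by TIMS-PASEF on a timsTOF Pro. Ion mobility was calibrated with the Agilent tuning mix (negative mode ions) and converted to collisional cross sections (Mason–Schamp, N2).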

Setting [1] is: sample type: Human plasma, ion (formula + adduct): [C34H62O5-H] 1-.
The mark [2] stands for this setting: sample type: Human plasma, ion (formula + adduct): [C36H66O5-H] 1-.

± gives the standard deviation of the averaged measurements.
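Further: lipids from MTBE extraction, five replicate injections per sample, 100 ms TIMS ramp spanning 0.6–1.95 Vs/cm², lipid identity assigned from PASEF MS/MS spectra.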

With `CCCCC/C=C\C/C=C\CCCCCCCC(=O)OC[C@H](COP(=O)(O)OCC(O)COP(=O)(O)OC[C@@H](COC(=O)CCCCCCC/C=C\C/C=C\CCCCC)OC(=O)CCCCCCC/C=C\C/C=C\CCCCC)OC(=O)CCCCCCC/C=C\C/C=C\CCCCC` (some centres not stated) [CL 18:2_18:2_18:2_18:2], the “TIMS collisional cross section” value (sample type: Mouse Liver, ion (formula + adduct): [C81H142O17P2-H] 2-) was 411.8 Å².

Consider `CCCCCCCCCCCCC/C=C/[C@@H](O)[C@H](CO)NC(=O)CCCCCCCCCCCCCCCCCCCCC` [Cer d18:1_22:0], for which, under “sample type: Mouse Liver, ion (formula + adduct): [C40H79NO3-H] 1-”, the “TIMS collisional cross section” value is 265 Å².

On to `CCCCC/C=C\C/C=C\CCCCCCCC(=O)O[C@@H](CO)COC(=O)CCCCCCCCCCC` [DG 12:0@_18:2_0:0], for which the “TIMS collisional cross section” value (sample type: Human plasma, ion (formula + adduct): [C33H60O5-H] 1-) turned out to be 229.1 Å².

`CCCCC/C=C\C/C=C\CCCCCCCC(=O)O[C@@H](CO)COC(=O)CCCCCCCCCCCC` [DG 13:0@_18:2_0:0]: the “TIMS collisional cross section” value under setting [1] was 244.7 Å².

Consider `CCCCCCCC/C=C\CCCCCCCC(=O)O[C@@H](CO)COC(=O)CCCCCCCCCCCC` [DG 13:0_18:1@_0:0], for which the “TIMS collisional cross section” value (sample type: Mouse Liver, ion (formula + adduct): [C34H64O5+AcO] 1-) was 252.3 Å².

With `CCCCC/C=C\C/C=C\C/C=C\C/C=C\CCCC(=O)O[C@@H](CO)COC(=O)CCCCCCCCCCCCC` [DG 14:0@_20:4_0:0], the “TIMS collisional cross section” value (sample type: Human plasma, ion (formula + adduct): [C37H64O5+HCOO] 1-) was 256.2 Å².

Take `CCCC/C=C\CCCCCCCC(=O)OC[C@H](CO)OC(=O)CCCCCCCCC/C=C\C/C=C\CCCCC` [DG 14:1@_20:2_0:0]: under “sample type: Human plasma, ion (formula + adduct): [C37H66O5-H] 1-”, the “TIMS collisional cross section” value was found to be 247.2 Å².

`CCCCC/C=C\C/C=C\CCCCCCCC(=O)O[C@@H](CO)COC(=O)CCCCCCCCCCCCCC` [DG 15:0@_18:2_0:0]: the “TIMS collisional cross section” value under setting [2] is listed as 254.4 Å².

Turning to `CCCCC/C=C\CCCCCCCC(=O)OC[C@H](CO)OC(=O)CCCCCCC/C=C\CCCCCC` [DG 15:1@_16:1_0:0], the “TIMS collisional cross section” value under setting [1] was determined as 245.3 Å².

As for `CCCCC/C=C\CCCCCCCC(=O)OC[C@H](CO)OC(=O)CCCCCCC/C=C\CCCCCCCC` [DG 15:1@_18:1_0:0], the “TIMS collisional cross section” value under setting [2] is given as 253.8 Å².

As for `CC/C=C\C/C=C\C/C=C\CCCCCCCC(=O)O[C@@H](CO)COC(=O)CCCCCCC/C=C\CCCCC` [DG 15:1@_18:3_0:0], under “sample type: Human plasma, ion (formula + adduct): [C36H62O5-H] 1-”, the “TIMS collisional cross section” value is on record as 251.2 Å².

On to `CCCCCCCCCCCCCCCC(=O)OC[C@@H](O)COP(=O)(O)O` [LPA 16:0_0:0], for which the “TIMS collisional cross section” value (sample type: Human plasma, ion (formula + adduct): [C19H39O7P-H] 1-) is recorded as 201.2 Å².

For the compound `CCCCCC/C=C\CCCCCCCC(=O)OC[C@@H](O)COP(=O)(O)O` [LPA 16:1_0:0], the “TIMS collisional cross section” value (sample type: Human plasma, ion (formula + adduct): [C19H37O7P-H] 1-) amounted to 198.2 Å².

Consider `CCCCCCCC/C=C\CCCCCCCC(=O)OC[C@@H](O)COP(=O)(O)O` [LPA 18:1_0:0], for which the “TIMS collisional cross section” value (sample type: Human plasma, ion (formula + adduct): [C21H41O7P-H] 1-) is 205 Å².

On to `CCCCC/C=C\C/C=C\CCCCCCCC(=O)OC[C@@H](O)COP(=O)(O)O` [LPA 18:2_0:0], for which, for the setting “sample type: Human plasma, ion (formula + adduct): [C21H39O7P-H] 1-”, the “TIMS collisional cross section” value stood at 207.7 ± 8.1 Å².

Take `CCCCC/C=C\C/C=C\C/C=C\C/C=C\CCCC(=O)OC[C@@H](O)COP(=O)(O)O` [LPA 20:4_0:0]: for the setting “sample type: Human plasma, ion (formula + adduct): [C23H39O7P-H] 1-”, the “TIMS collisional cross section” value is given as 207.1 Å².

For `CC/C=C\C/C=C\C/C=C\C/C=C\C/C=C\CCCC(=O)OCC(O)COP(=O)(O)O` (configuration not stated) [LPA 20:5], the “TIMS collisional cross section” value (sample type: Human plasma, ion (formula + adduct): [C23H37O7P-H] 1-) came to 206.5 Å².

Consider `CC/C=C\C/C=C\C/C=C\C/C=C\C/C=C\C/C=C\CCC(=O)OC[C@@H](O)COP(=O)(O)O` [LPA 22:6_0:0], for which the “TIMS collisional cross section” value reads like this: (sample type: Human plasma, ion (formula + adduct): [C25H39O7P-H] 1-) 211 Å²; (sample type: Mouse Liver, ion (formula + adduct): [C25H39O7P-H] 1-) 211.6 Å².

For `CCCCCCCCCCCCCC(=O)OC[C@@H](O)COP(=O)([O-])OCC[N+](C)(C)C` [LPC 14:0_0:0], the “TIMS collisional cross section” value (sample type: Human plasma, ion (formula + adduct): [C22H46NO7P+HCOO] 1-) is listed as 231.1 ± 0.42 Å²; the “TIMS collisional cross section” value (sample type: Human plasma, ion (formula + adduct): [C22H46NO7P-CH3] 1-) was 219.7 Å²; the “TIMS collisional cross section” value (sample type: Mouse Liver, ion (formula + adduct): [C22H46NO7P+HCOO] 1-) turned out to be 231.3 Å².
